# Values joined by “and” are separate entries in the source; they are usually repeats but may differ in a detail not shown here. Equal entries are not always repeated. Active and inactive are the calls of the source.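 The calls were made as follows: active = compounds giving half or more protection of infected cells from virus-caused growth loss, again on retest; inactive = the rest.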 Where a SMILES comes first, the peptide text is derived from it. [ ]: non-standard residue; d: D form. The star is where a group is joined. ξ: configuration not given here. ξW = NC(Cc1c[nH]c2ccccc12)C(=O)O; X18 = O=C(O)[C@H]1CCC[C@H]1N*; ξF = NC(Cc1ccccc1)C(=O)O; Boc = CC(C)(C)OC(=O)*; ξK = NCCCCC(N)C(=O)O; ξT = CC(O)C(N)C(=O)O; tBu = CC(C)(C)*
# Test system: CEM cells HIV-1 protection, formazan growth assay
# Assay: NCI AIDS Antiviral Assay
# Conditions: for IC50: measured here: growth of uninfected CEM cells
# Outline: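 CEM (human) cells, HIV-1 infected vs uninfected, 5-point dosing, formazan growth read-out. Retest threshold 50% protection.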
Structure (SMILES),EC50 [µM],IC50,outcome
CCOc1cnc(C(O)(c2ccccc2)c2ccccc2)o1,19.1,148 µM,–
CSC(=S)OC1C(CO[Si](C)(C)C(C)(C)C)OC2OC(C)(C)OC21 (centres undefined),–,–,inactive
C[C@@H]1CC(=O)[C@@]2(C)[C@](O)(CCC3O[C@]32C)[C@@]12CC(c1ccoc1)OC2=O (some centres undefined),> 200,30.9 µM,–
C=CCCCCCCCCC(=O)NC(C)COC (centres undefined),> 200,107 µM,–
NC(CSSCC(N)C(=O)c1ccccc1)C(=O)c1ccccc1 (centres undefined),> 200,9.77 µM,–
Nc1c(C(=O)OCc2ccccc2)[nH]c(=O)[nH]c1=O,> 200,> 200 µM,–
O=S(=O)(ON=C1C=CC(=NOS(=O)(=O)c2ccccc2)C=C1)c1ccccc1,> 200,1.02 µM,–
COc1ccccc1NC(=O)/C(=C\N1C(=O)CC(=O)NC1=S)C(C)=O,> 200,> 200 µM,–
CSc1cnc2ccccc2c1Sc1cn(C)c2ccccc2c1=O,> 37.2,31.6 µM,–
NS(=O)(=O)c1ccc(NC(=S)/N=C/c2c(O)c3ccccc3[nH]c2=O)cc1,> 200,> 200 µM,–
Cc1cc2c(cc1C)C1=C(CCC2)C(=O)C(=O)O1,> 200,110 µM,–
CCC(C)NC(=O)/C(=C\c1ccccc1O)NC(=O)c1ccccc1 (centres undefined),> 200,> 200 µM,–
CSc1nc2[nH]c(=O)n(OS(=O)(=O)c3ccccc3)c(=O)c2n1C,> 200,115 µM,–
Cc1coc2c1C(=O)C(=O)c1c-2ccc2c1CCCC2(C)C,> 200,25.7 µM,–
O=c1[nH]c2ccccc2c(=O)n1/N=C/c1ccc(O)cc1,> 200,> 200 µM,–
CCSSC12CCCN1C(=O)C1CCCN1C2=O (centres undefined),> 200,15.8 µM,–
CCOP(=O)(OCC)/C(C#N)=C/c1c[nH]c2ccccc12,> 200,178 µM,–
CC(C)=CCC/C(C)=C\CCC1(C)OC(=O)C2CC21 (centres undefined),> 200,81.3 µM and 36.3 µM,–
COc1ccc(N=NC(=O)NC(CC(C)C)C(=O)NC(C)C(=O)O)cc1 (centres undefined),> 200,2.82 µM,–
Cc1cc(Cl)ccc1NC(=O)/C(=N\NC(C)(C)C)C(C#N)c1nc(-c2ccc([N+](=O)[O-])cc2)cs1 (centres undefined),2.63,10.2 µM,–
CCOC(=O)c1cn(CC)c2cc3c(cc2c1=O)CCS3(=O)=O,> 200,> 200 µM,–

Structure (SMILES),EC50 [µM],IC50,outcome
CN1C(=O)C=C(C=Nc2ccc(-c3ccccc3)cc2)C2CCCCC21 (centres undefined),> 200,2.29 µM,–
O=C(Cc1ccccc1)ONC(CCCCNC(=O)OCc1ccccc1)C(=O)Nc1ccc(Cc2ccc(NC(=O)C(CCCCNC(=O)OCc3ccccc3)NC(=O)OCc3ccccc3)cc2)cc1 (centres undefined),> 100,> 100 µM,–
c1ccc2c(OCCSCCCCCCCCCCSCCOc3cccc4ccccc34)cccc2c1,> 5.01,> 5.01 µM,–
C[C@H]1S[C@H](c2c(F)cccc2F)n2c1nc1ccccc12,> 200,33.9 µM,–
Nc1c(C(=O)O)nnc2cc(Cl)ccc12,> 200,66.1 µM,–
C[C@@]1(O)C2CC3CC1(c1ccccc1)CC(/C3=N/O)/C2=N\O (some centres undefined),> 200,> 200 µM,–
c1ccc(COc2ccc(CC3SCCCS3)cc2)cc1,> 200,> 200 µM,–
CN(/N=C/C=N/N(C)C1=NCCN1)C1=NCCN1,> 200,> 200 µM,–
CCCCCCCCCCCCN1C=C(C(N)=O)C(S(=O)(=O)O)c2ccccc21 (centres undefined),6.61,25.1 µM,–
O=C(c1ccccc1)c1cc2c([nH]c1=O)CCCCC2,> 200,135 µM,–
C[N+](C)(CCOc1ccccc1)Cc1cccs1,> 200,> 200 µM,–
CN(C(=O)c1ccc(Cl)s1)C(=S)N(C)C(=O)c1ccc(Cl)s1,> 120,115 µM,–
CC(=O)NC(CSSCC(NC(C)=O)C(=O)O)C(=O)O (centres undefined),> 776,> 776 µM,–
C=CCc1ccccc1OP(=O)(Oc1ccc(C(C)(C)C)cc1)Oc1ccc(C(C)(C)C)cc1,–,–,inactive
O=C(c1ccccc1)N1C(=O)N(c2ccccc2)C(=Nc2ccccc2)C1=Nc1ccccc1,> 200,19.1 µM,–
N[C@H]1c2c(Br)sc(Br)c2C(=O)[C@H]1O,> 200,7.59 µM,–
O=[N+]([O-])c1ccc(N2N=C(c3ccc4ccccc4c3O)CC2c2ccc(Cl)cc2Cl)c([N+](=O)[O-])c1 (centres undefined),> 200,42.7 µM,–
CCCCC[C@@H]1CC=CC(NC(=O)OCc2ccccc2)C1/C=C/C(=O)OCCCC1OCCO1 (some centres undefined),–,–,inactive
O=C(O)C1C2C=CC(C2)C1c1c2ccc(=O)c(O)c-2oc2c(O)c(O)ccc12 (centres undefined),> 200,26.3 µM,–
Cc1ccc(S(=O)(=O)N2CCCSCC2)cc1,> 182,> 182 µM,–
Nc1nc(Cl)cc(NCC2(O)CC2)n1,> 200,> 200 µM,–

Structure (SMILES),EC50 [µM],IC50,outcome
O=C1NC(=S)S/C1=C/c1ccco1,> 123,72.4 µM,–
COc1ccc(/C=C/C(=O)OC/C=C/c2ccc3c(c2)OCO3)cc1OC,> 200,102 µM,–
Cc1ccc(S(=O)(=O)NNS(C)(=O)=O)cc1,> 955,646 µM,–
COc1ccc(Nc2cnc3cc(N)ccc3n2)cc1OC,> 603,42.7 µM,–
Nn1c(Cc2ccccc2)nnc1Cc1ccccc1,> 200,> 200 µM,–
CCOC(=O)C(Cc1ccc2c(c1)CCC2)(Cc1ccc2c(c1)CCC2)C(=O)OCC,> 200,69.2 µM,–
CCC(CO)COC(=O)/C=C/C(=O)OCC(CC)CO (centres undefined),–,–,inactive
COC(=O)c1c2c(cc3c1CC1(Cc4cc5c(c(C=O)c4C1)CCC5)C3)CCC2 (centres undefined),> 200,20 µM,–
CCCCCCCCCCNCCSSCc1ccc(OC)cc1,> 200,3.39 µM,–
CC(OC(C)(C)C)C(NC(=O)C(CCCCNC(=O)OC(C)(C)C)NC(=O)C(Cc1c[nH]c2ccccc12)NC(=O)C(N)Cc1ccccc1)C(=O)NC(Cc1ccccc1)C(=O)N[C@@H]1CCC[C@@H]1C(=O)O (some centres undefined) (H-[ξF][ξW][ξK](Boc)[ξT](tBu)[ξF]-X18),–,–,inactive
COC(=O)Nc1cn2ccc(Sc3ccccc3)cc2n1,> 45.7,0.776 µM,–
c1ccc2sc(SSc3nc4ccccc4s3)nc2c1,> 200,> 200 µM,–
CCC1OC(=O)[C@H](C)C(OC2CC(C)(OC)C(O)C(C)O2)C(C)C(OC2OC(C)CC(N(C)C)C2O)[C@](C)(O)CC(C)CN(C)[C@H](C)[C@@H](O)[C@]1(C)O (some centres undefined),> 200,132 µM,–
C=C1CC(Cn2cc(C)c(=O)[nH]c2=O)(c2ccc(-c3ccccc3)cc2)OC1=O (centres undefined),> 20,0.288 µM,–
Cc1cn(CC2=NCC(C)N2)c(=O)[nH]c1=O (centres undefined),> 200,> 200 µM,–
COc1ccc(Cc2nnc3nc(OC)c(-c4ccc(OC)cc4)n3n2)cc1,> 50.1,> 50.1 µM,–
COc1cc(CCCOC(=O)/C=C/c2ccc(O)c(O)c2)cc(O)c1O,> 200,> 200 µM,–
O=C1CC(C(O)(C(F)(F)F)C(F)(F)Cl)CCC1C(O)(C(F)(F)F)C(F)(F)Cl (centres undefined),–,–,inactive
COc1ccc(NC(=O)CC/C(CC(=O)c2ccco2)=N/Nc2ccc([N+](=O)[O-])cc2[N+](=O)[O-])cc1,> 52.5,30.9 µM,–
N#CC12C(=O)N3C(=NC(c4ccccc4)NC3c3ccccc3)C1(C#N)C(c1ccccc1)NC1=C2CCCC1 (centres undefined),> 200,> 200 µM,–
CC12CC(=O)NN=C1c1ccccc1C2 (centres undefined),–,–,inactive

# — PubChem BioAssay AID179 (DTP/NCI, 2004)
